Laboratory results as given in ChEMBL document CHEMBL1137937, “Synthesis and pharmacological evaluation of prenylated and benzylated pterocarpans against snake venom” (2004).

Key:
Type in all cases: functional
Mus musculus [1] = species on record: Mus musculus; test: Inhibition of the increase of the rate of CK release induced by […] of Bothrops jararacussu venom on isolated EDL mouse muscles after 60 min of exposure at 0.1-30 uM
Mus musculus [2] = species on record: Mus musculus; test: Inhibition of the increase of the rate of CK release induced by […] of Bothrops jararacussu venom on isolated EDL mouse muscles after 60 min of exposure at 10-30 uM
Mus musculus [3] = species on record: Mus musculus; test: Inhibition of the increase of the rate of CK release induced by […] of Bothrops jararacussu venom on isolated EDL mouse muscles after 60 min of exposure at 0.1-1.0 uM
Mus musculus [4] = species on record: Mus musculus; test: Inhibition of the increase of the rate of CK release induced by […] of Bothrops jararacussu venom on isolated EDL mouse muscles after 60 min of exposure at 0.1-10 uM

| SMILES | Inhibition (Mus musculus [1]) [%] | other results |
| --- | --- | --- |
| Oc1ccc2c(c1)OC[C@H]1c3cc4c(c(Cc5ccccc5)c3O[C@@H]21)OCO4 | 0 |  |
| CC(C)=CCc1c2c(cc3c1O[C@H]1c4ccc(O)c(CC=C(C)C)c4OC[C@@H]31)OCO2 | 0 |  |
| CC(C)=CCc1c(O)ccc2c1OC[C@H]1c3cc4c(cc3O[C@@H]21)OCO4 |  | Inhibition (Mus musculus [2]): 0%; Inhibition (Mus musculus [3]): >40% |
| CC(C)=CCc1c2c(cc3c1O[C@H]1c4ccc(O)cc4OC[C@@H]31)OCO2 | 0 |  |
| Oc1ccc2c(c1Cc1ccccc1)OC[C@H]1c3cc4c(cc3O[C@@H]21)OCO4 |  | Inhibition (Mus musculus [4]): >70% |
| Oc1ccc2c(c1Cc1ccccc1)OC[C@H]1c3cc4c(c(Cc5ccccc5)c3O[C@@H]21)OCO4 | 0 |  |
| Oc1ccc2c(c1)OC[C@H]1c3cc4c(cc3O[C@@H]21)OCO4 [MAACKIAIN] | 0 |  |
